Measured values reported in patent US12637424B2, “Pharmaceutical salt of an arylpyrrole derivative” (SENTINEL ONCOLOGY LIMITED, priority 2020, dated 2026).
Read-outs that look alike come from different tables or passages of the source. Values belong to the molecule of their own block, whether it stands above or below them.

What was measured:
Assay type in all cases: cell-based
[1] = test system: Daudi; experiment: Cancer cell line panel proliferation (CellTiter-Glo); details: Blood/Lymphoma, 72 hours
Protocol: (§1) Screening against diverse cancer cell lines was performed to identify tumour types displaying sensitivity to atropisomers A-1 and A-2. A panel of 48 cancer-derived cell lines was screened in a high-throughput proliferation assay using dilutions of atropisomers A-1/A-2. Cell lines that were screened included those representing cancer of the pancreas, large intestine/colorectum, lung, brain and nerves, and lymphoma and leukaemia cell lines. Cell lines were treated with serial half-log dilutions of compound and assayed 72 hours later for proliferation using CellTiter-Glo Assay (Promega). IC50 values were calculated by fitting the dose-response data using a nonlinear regression model.

[2] = test system: SU-DHL-2; experiment: as above; details: SU-DHL-2, Blood/Lymphoma, 72 hours
Protocol: as §1

[3] = test system: Daoy; experiment: as above; details: Brain&Nerves, 72 hours
Protocol: as §1

[4] = test system: NCI-H1792; experiment: as above; details: NCI-H1792, Lung, 72 hours
Protocol: as §1

[5] = test system: WSU-DLCL2; experiment: as above; details: WSU-DLCL2, Blood/Lymphoma, 72 hours
Protocol: as §1

[6] = test system: U118 MG; experiment: as above; details: Brain&Nerves, 72 hours
Protocol: as §1

[7] = test system: Z-138; experiment: as above; details: Z-138, Blood/Lymphoma, 72 hours
Protocol: as §1

[8] = test system: SW1088; experiment: as above; details: SW1088, Brain&Nerves, 72 hours
Protocol: as §1

[9] = test system: Panc 10.05; experiment: as above; details: Panc 10.05, Pancreas, 72 hours
Protocol: as §1

[10] = test system: RKO; experiment: as above; details: Large intestine/Colorectum, 72 hours
Protocol: as §1

[11] = test system: NCI-H1975; experiment: as above; details: NCI-H1975, Lung, 72 hours
Protocol: as §1

[12] = test system: PANC-1; experiment: as above; details: PANC-1, Pancreas, 72 hours
Protocol: as §1

[13] = test system: HT-29; experiment: as above; details: HT-29, Large intestine/Colorectum, 72 hours
Protocol: as §1

[14] = test system: HCT 116; experiment: as above; details: HCT 116, Large intestine/Colorectum, 72 hours
Protocol: as §1

[15] = test system: BxPC-3; experiment: as above; details: BxPC-3, Pancreas, 72 hours
Protocol: as §1

[16] = test system: NCI-H460; experiment: as above; details: NCI-H460, Lung, 72 hours
Protocol: as §1

[17] = test system: SK-MES-1; experiment: as above; details: SK-MES-1, Lung, 72 hours
Protocol: as §1

[18] = test system: D283 Med; experiment: as above; details: Brain&Nerves, 72 hours
Protocol: as §1

[19] = test system: NCI-H1299; experiment: as above; details: NCI-H1299, Lung, 72 hours
Protocol: as §1

[20] = test system: HCC44; experiment: as above; details: HCC44, Lung, 72 hours
Protocol: as §1

[21] = test system: Capan-1; experiment: as above; details: Capan-1, Pancreas, 72 hours
Protocol: as §1

[22] = test system: GRANTA-519; experiment: as above; details: GRANTA-519, Blood/Lymphoma, 72 hours
Protocol: as §1

[23] = test system: Ramos; experiment: as above; details: Blood/Lymphoma, 72 hours
Protocol: as §1

[24] = test system: U-2932; experiment: as above; details: U-2932, Blood/Lymphoma, 72 hours
Protocol: as §1

[25] = test system: A549; experiment: as above; details: A549, Lung, 72 hours
Protocol: as §1

[26] = test system: OCI-LY-19; experiment: as above; details: OCI-LY-19, Blood/Lymphoma, 72 hours
Protocol: as §1

[27] = test system: T98G; experiment: as above; details: Brain&Nerves, 72 hours
Protocol: as §1

[28] = test system: ML-2; experiment: as above; details: ML-2, Blood/Leukaemia, 72 hours
Protocol: as §1

[29] = test system: DOHH-2; experiment: as above; details: DOHH-2, Blood/Lymphoma, 72 hours
Protocol: as §1

[30] = test system: NCI-H1373; experiment: as above; details: NCI-H1373, Lung, 72 hours
Protocol: as §1

[31] = test system: Toledo; experiment: as above; details: Blood/Lymphoma, 72 hours
Protocol: as §1

[32] = test system: SW480; experiment: as above; details: SW480, Large intestine/Colorectum, 72 hours
Protocol: as §1

[33] = test system: JVM-2; experiment: as above; details: JVM-2, Blood/Lymphoma, 72 hours
Protocol: as §1

[34] = test system: MIA PaCa-2; experiment: as above; details: MIA PaCa-2, Pancreas, 72 hours
Protocol: as §1

[35] = test system: KG-1; experiment: as above; details: KG-1, Blood/Leukaemia, 72 hours
Protocol: as §1

[36] = test system: SW620; experiment: as above; details: SW620, Large intestine/Colorectum, 72 hours
Protocol: as §1

[37] = test system: Kasumi-1; experiment: as above; details: Kasumi-1, Blood/Leukaemia, 72 hours
Protocol: as §1

[38] = test system: U87MG Human Glioblastoma Cancer Cell; experiment: U87MG cell viability (SRB assay); details: 72 hours, read-out: IC50 for inhibition of cell growth
Protocol: The following protocol was used to measure the effects of atropisomers A-1 and A-2 on U87MG cell viability. U87MG cells were grown in their recommended growth media/supplements (ATCC). Cells were seeded at a concentration of 5000 cells per well into 96 well plates overnight at 37° C., 5% CO2. Cells were treated with relevant concentrations of test compound for 72 hours. After 72 h incubation, viability was established using sulforhodamine B (SRB) colorimetric assay. Percentage viability was calculated against the mean of the DMSO treated control samples, and IC50 values for inhibition of cell growth were calculated using GraphPad Prism software by nonlinear regression (4 parameter logistic equation).

- IC50 ([1]; Homo sapiens): 390 nM
- IC50 ([2]; Homo sapiens): 200 nM
- IC50 ([3]; Homo sapiens): 180 nM
- IC50 ([4]; Homo sapiens): 250 nM
- IC50 ([5]; Homo sapiens, WSUDLCL2): 360 nM
- IC50 ([6]; Homo sapiens, U-118-MG): 470 nM
- IC50 ([7]; Homo sapiens): 210 nM
- IC50 ([8]; Homo sapiens): 770 nM
- IC50 ([9]; Homo sapiens, Panc1005): 1140 nM
- IC50 ([10]; Homo sapiens): 160 nM
- IC50 ([11]; Homo sapiens): 630 nM
- IC50 ([12]; Homo sapiens): 830 nM
- IC50 ([13]; Homo sapiens): 450 nM
- IC50 ([14]; Homo sapiens): 230 nM
- IC50 ([15]; Homo sapiens): 300 nM
- IC50 ([16]; Homo sapiens): 300 nM
- IC50 ([17]; Homo sapiens): 360 nM
- IC50 ([18]; Homo sapiens): 310 nM
- IC50 ([19]; Homo sapiens): 370 nM
- IC50 ([20]; Homo sapiens): 480 nM
- IC50 ([21]; Homo sapiens): 1230 nM
- IC50 ([22]; Homo sapiens): 220 nM
- IC50 ([23]; Homo sapiens): 340 nM
- IC50 ([25]; Homo sapiens): 300 nM
- IC50 ([26]; Homo sapiens, OCI-LY19): 220 nM
- IC50 ([27]; Homo sapiens): 280 nM
- IC50 ([28]; Homo sapiens): 180 nM
- IC50 ([29]; Homo sapiens): 230 nM
- IC50 ([30]; Homo sapiens): 3210 nM
- IC50 ([31]; Homo sapiens): 880 nM
- IC50 ([32]; Homo sapiens): 870 nM
- IC50 ([33]; Homo sapiens): 380 nM
- IC50 ([34]; Homo sapiens): 330 nM
- IC50 ([35]; Homo sapiens): 460 nM
- IC50 ([36]; Homo sapiens, SW-620): 190 nM
- IC50 ([37]; Homo sapiens): 330 nM
- IC50 ([38]; Homo sapiens, U-87 MG): 220 nM
Compound: CN(C)CCNC(=O)c1ccc(-c2ccc(-c3ccc(Cl)cc3)n2-c2ccccc2C(F)(F)F)cc1 (single isomer, unassigned) [Atropisomer A-2]
- IC50 ([24]; Homo sapiens, U2932): 280 nM

- IC50 [1]: 7170 nM
- IC50 [2]: 7010 nM
- IC50 [3]: 7000 nM
- IC50 [4]: 7730 nM
- IC50 [5]: 6740 nM
- IC50 [6]: 7600 nM
- IC50 [7]: 7040 nM
- IC50 [8]: 8490 nM
- IC50 [9]: 9000 nM
- IC50 [10]: 6170 nM
- IC50 [11]: 5140 nM
- IC50 [12]: > 10000 nM
- IC50 [13]: 4530 nM
- IC50 [14]: 7360 nM
- IC50 [15]: 6970 nM
- IC50 [16]: 8130 nM
- IC50 [17]: 7780 nM
- IC50 [18]: 9260 nM
- IC50 [19]: 8250 nM
- IC50 [20]: 8260 nM
- IC50 [21]: > 10000 nM
- IC50 [22]: 7420 nM
- IC50 [23]: 3990 nM
- IC50 [25]: 9190 nM
- IC50 [26]: 6670 nM
- IC50 [27]: 5260 nM
- IC50 [28]: 4010 nM
- IC50 [29]: 5640 nM
- IC50 [30]: > 10000 nM
- IC50 [31]: > 10000 nM
- IC50 [32]: 7550 nM
- IC50 [33]: 4710 nM
- IC50 [34]: 9170 nM
- IC50 [35]: > 10000 nM
- IC50 [36]: 8350 nM
- IC50 [37]: 5130 nM
- IC50 [38]: 4600 nM
Compound: CN(C)CCNC(=O)c1ccc(-c2ccc(-c3ccc(Cl)cc3)n2-c2ccccc2C(F)(F)F)cc1 (single isomer, unassigned; atropisomer a) [Atropisomer A-1]
- IC50 [24]: 4470 nM
